The numbers were not newly measured in patent publication US20180228757A1, “EDIBLE PARTICLES COMPRISING A POLYSACCHARIDE AND A LIPID” (PERORA GMBH, priority 2015, published 2018), which cites them from elsewhere.

Structures are written as SMILES.

For this data set the following is noted: infusion into the duodenum by means of a feeding tube.

Turning to `CCCCCCCCCCCC(=O)O` [lauric acid], the satiety signalling result is “strong satiety signalling”.
Consider `CCCCCCCC/C=C\CCCCCCCC(=O)O` [oleic acid], for which the satiety signalling result was “strong satiety signalling”.
